{"source": "patent US8193364B2", "about": "“Insecticidal N-substituted (6-haloalkylpyridin-3-yl)-alkyl sulfoximines” (Dow AgroSciences, LLC., priority 2006, dated 2012)", "test_system": "Brown Planthopper (Nilaparvata lugens)", "assay": "Brown planthopper foliar spray assay on rice", "type": "in vivo", "method": "A foliar spray assay and a root-uptake systemic assay were performed on both brown planthopper and green leafhopper. Four-week-old rice seedlings were submerged in 3-cm depth of water in the bottom portion (high 5 cm, diameter 3 cm) of a 2-part glass cylinder (high 18 cm, diameter 3 cm). A metal screen was used to hold the seedlings within the bottom portion. Scotch tape was used to bind the two portions of the cylinder after setting up the seedlings. A metal cap was used to cover the cylinder. There were 4 cylinders for each treatment. The test compound was dissolved in acetone to make a 10,000 ppm stock solution. For the foliar spray assay, this stock solution was diluted with water to make 10, 2.5, 0.31, 0.08 and 0.02 ppm test solutions. A volume of 0.5 ml of a test solution or solvent blank as check was sprayed into the glass cylinder. For systemic test, the stock solution was incorporated at final test concentrations of 10, 2.5, 0.31, 0.08 and 0.02 ppm in the water in which rice seedlings were submerged. In both foliar spray and systemic tests, five laboratory-reared 3rd instar nymphs of brown planthopper or green leafhopper were introduced into each cylinder 3 hr after insecticide application. The treated test units were kept in a growth chamber with conditions set as followings: Temperature 28±0.5° C.; Relative humidity 70±0.5%; Photoperiod […]."}
{"smiles": "CC(c1ccc(C(F)(F)F)nc1)S(C)(=O)=NC#N", "note": "(centres unmarked) [Compound 2, [1-(6-trifluoromethylpyridin-3-yl)ethyl](methyl)-oxido-λ^4-sulfanylidenecyanamide]", "values": [{"measurement": "% Control at ppm against brown planthopper", "setting": "0.02 ppm", "value": "F (Less than 50)"}, {"measurement": "% Control at ppm against brown planthopper", "setting": "0.08 ppm", "value": "E (50-59)"}, {"measurement": "% Control at ppm against brown planthopper", "setting": "0.31 ppm", "value": "A (90-100)"}, {"measurement": "% Control at ppm against brown planthopper", "setting": "2.5 ppm", "value": "A (90-100)"}, {"measurement": "% Control at ppm against brown planthopper", "setting": "10 ppm", "value": "A (90-100)"}]}
